Tests used:
[1] = target: Epidermal growth factor receptor (Homo sapiens, UniProt P00533, EX19DEL/T790M); assay: Inhibition of recombinant human EGFR del19/T790M using biotinEEPLYWSFPAKKK-NH2 as substrate incubated for 120 mins by TR-FRET assay
[2] = target: Fibroblast growth factor receptor 2 (Homo sapiens, UniProt P21802)
Description: Inhibition of human recombinant cytoplasmic domain FGFR2 (8 to 134 residues) incubated for 120 mins by mobility shift assay

[3] = Microsomal stability in human liver microsomes assessed as parent compound remaining measured after 30 mins in presence of NADPH generating system by LC-MS analysis; assay type: ADME, Microsome; details: read-out: Stability
[4] = Microsomal stability in mouse liver microsomes assessed as parent compound remaining measured after 30 mins in presence of NADPH generating system by LC-MS analysis; assay type: ADME, Microsome; details: read-out: Stability
[5] = Drug exposure in BALB/cA mouse assessed as AUC(0 to 6 hrs) of drug at 50 mg/kg, po measured after 6 hrs by LC-MS analysis; assay type: ADME, organism-based; design: dose 50 mg/kg, time 6 hrs, route po; details: in vivo
[6] = Lipophilicity, logD of the compound at pH 7.4; assay type: physicochemical; details: buffer
[7] = tested on: SNU-16; assay: cells; details: Homo sapiens, SNU-16, 72 h
Description: Cytotoxicity against human SNU-16 cells assessed as inhibition of cell growth measured after 72 hrs by cell titer glo assay

[8] = tested on: SNU1; assay: cells; details: Homo sapiens, SNU1, 72 h
Description: Cytotoxicity against human SNU1 cells assessed as inhibition of cell growth measured after 72 hrs by cell titer glo assay

[9] = target: Vascular endothelial growth factor receptor 2 (Homo sapiens, UniProt P35968)
Description: Inhibition of N-terminal GST tagged recombinant human VEGFR2 (aa805 to 1356 residues) expressed in baculovirus expression system using Poly- (Glu4:Tyr)-biotin as substrate incubated for 80 mins in presence of ATP by kinase glo method

[10] = target: Fibroblast growth factor receptor 1 (Homo sapiens) (UniProt P11362); assay: Inhibition of partial length wild type human FGFR1 (P357 to V669 residues) expressed in bacterial expression system at 100 uM by Kinome scan method relative to control
[11] = target: Fibroblast growth factor receptor 3 (Homo sapiens) (UniProt P22607); assay: Inhibition of wild type human partial length FGFR3 (R442 to S771 residues) expressed in bacterial expression system at 100 uM by Kinome scan method relative to control
[12] = target: T1, Mitogen-activated protein kinase 12 (Homo sapiens) (UniProt P53778); assay: Inhibition of human full length wild type MAPK12 (M1 to L367 residues) expressed in mammalian expression system at 100 uM by Kinome scan method relative to control
T1 sequence (whole entry): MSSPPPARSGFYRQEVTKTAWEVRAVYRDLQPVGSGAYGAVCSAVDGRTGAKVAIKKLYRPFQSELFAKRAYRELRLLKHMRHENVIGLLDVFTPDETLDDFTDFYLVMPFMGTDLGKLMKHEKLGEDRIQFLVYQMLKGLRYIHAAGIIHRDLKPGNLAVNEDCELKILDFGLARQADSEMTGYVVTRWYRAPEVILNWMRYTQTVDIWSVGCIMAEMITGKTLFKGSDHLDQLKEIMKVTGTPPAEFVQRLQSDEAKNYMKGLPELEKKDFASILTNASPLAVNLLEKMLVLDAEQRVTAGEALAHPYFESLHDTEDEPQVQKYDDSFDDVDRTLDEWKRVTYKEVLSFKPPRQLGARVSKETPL

[13] = target: Insulin receptor (Homo sapiens) (UniProt P06213); assay: Inhibition of human wild type partial length INSR (P997 to E1318 resides) expressed in mammalian expression system at 100 uM by Kinome scan method relative to control

Chain of Fibroblast growth factor receptor 2 (P21802 whole entry): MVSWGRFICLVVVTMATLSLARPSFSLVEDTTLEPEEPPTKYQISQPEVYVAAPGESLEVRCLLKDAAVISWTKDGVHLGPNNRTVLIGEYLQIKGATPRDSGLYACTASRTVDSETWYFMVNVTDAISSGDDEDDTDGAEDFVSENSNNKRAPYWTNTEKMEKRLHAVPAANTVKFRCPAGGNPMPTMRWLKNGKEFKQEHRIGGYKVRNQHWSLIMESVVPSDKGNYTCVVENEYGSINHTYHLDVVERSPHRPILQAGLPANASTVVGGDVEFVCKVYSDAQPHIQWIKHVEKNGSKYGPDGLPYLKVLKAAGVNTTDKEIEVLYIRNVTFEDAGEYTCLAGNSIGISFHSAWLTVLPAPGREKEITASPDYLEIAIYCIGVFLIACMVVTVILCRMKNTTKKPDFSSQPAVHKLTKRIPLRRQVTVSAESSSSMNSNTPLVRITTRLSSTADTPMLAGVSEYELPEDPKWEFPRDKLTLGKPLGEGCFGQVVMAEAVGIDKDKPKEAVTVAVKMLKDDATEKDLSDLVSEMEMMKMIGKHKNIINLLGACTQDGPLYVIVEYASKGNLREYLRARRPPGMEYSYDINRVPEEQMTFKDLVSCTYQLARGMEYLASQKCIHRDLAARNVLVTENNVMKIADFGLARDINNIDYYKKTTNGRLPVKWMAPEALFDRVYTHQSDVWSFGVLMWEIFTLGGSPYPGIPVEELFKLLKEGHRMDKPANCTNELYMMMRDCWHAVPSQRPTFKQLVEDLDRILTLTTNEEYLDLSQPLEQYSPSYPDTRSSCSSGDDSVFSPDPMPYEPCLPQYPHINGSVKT
Chain of Epidermal growth factor receptor (P00533 whole entry, looked up, stated change not applied): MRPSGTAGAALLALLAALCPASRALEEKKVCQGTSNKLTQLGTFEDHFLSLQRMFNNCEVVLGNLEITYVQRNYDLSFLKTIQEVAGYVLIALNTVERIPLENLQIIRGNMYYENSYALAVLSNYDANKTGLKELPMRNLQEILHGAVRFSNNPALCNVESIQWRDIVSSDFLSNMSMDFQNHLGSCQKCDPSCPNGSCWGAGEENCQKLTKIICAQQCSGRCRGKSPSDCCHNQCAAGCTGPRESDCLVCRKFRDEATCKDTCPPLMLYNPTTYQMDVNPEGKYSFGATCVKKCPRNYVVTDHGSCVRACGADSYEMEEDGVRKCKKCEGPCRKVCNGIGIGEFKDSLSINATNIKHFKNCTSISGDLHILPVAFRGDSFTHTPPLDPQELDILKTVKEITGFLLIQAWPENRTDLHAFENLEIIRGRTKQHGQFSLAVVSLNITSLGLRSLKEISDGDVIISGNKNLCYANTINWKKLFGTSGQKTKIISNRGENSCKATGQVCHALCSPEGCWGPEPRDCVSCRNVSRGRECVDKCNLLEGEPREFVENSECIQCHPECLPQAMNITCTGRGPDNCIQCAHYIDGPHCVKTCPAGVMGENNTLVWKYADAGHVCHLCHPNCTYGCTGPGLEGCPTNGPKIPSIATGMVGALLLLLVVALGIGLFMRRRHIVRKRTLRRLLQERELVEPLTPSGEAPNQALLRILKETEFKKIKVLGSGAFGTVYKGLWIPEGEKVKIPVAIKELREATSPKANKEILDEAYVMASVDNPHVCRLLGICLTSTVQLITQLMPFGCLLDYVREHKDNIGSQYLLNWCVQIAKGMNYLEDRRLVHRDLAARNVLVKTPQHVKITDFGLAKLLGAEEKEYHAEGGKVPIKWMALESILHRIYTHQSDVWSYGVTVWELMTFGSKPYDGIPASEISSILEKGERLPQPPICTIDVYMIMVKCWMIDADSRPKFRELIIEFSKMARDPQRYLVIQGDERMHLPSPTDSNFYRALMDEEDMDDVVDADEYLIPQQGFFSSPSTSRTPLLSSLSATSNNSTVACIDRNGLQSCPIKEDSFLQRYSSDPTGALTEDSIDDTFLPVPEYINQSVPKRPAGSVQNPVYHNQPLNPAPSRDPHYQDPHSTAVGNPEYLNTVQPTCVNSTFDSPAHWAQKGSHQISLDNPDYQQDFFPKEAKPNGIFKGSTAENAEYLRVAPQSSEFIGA
Chain of Vascular endothelial growth factor receptor 2 (P35968 whole entry, the tested form may be a part): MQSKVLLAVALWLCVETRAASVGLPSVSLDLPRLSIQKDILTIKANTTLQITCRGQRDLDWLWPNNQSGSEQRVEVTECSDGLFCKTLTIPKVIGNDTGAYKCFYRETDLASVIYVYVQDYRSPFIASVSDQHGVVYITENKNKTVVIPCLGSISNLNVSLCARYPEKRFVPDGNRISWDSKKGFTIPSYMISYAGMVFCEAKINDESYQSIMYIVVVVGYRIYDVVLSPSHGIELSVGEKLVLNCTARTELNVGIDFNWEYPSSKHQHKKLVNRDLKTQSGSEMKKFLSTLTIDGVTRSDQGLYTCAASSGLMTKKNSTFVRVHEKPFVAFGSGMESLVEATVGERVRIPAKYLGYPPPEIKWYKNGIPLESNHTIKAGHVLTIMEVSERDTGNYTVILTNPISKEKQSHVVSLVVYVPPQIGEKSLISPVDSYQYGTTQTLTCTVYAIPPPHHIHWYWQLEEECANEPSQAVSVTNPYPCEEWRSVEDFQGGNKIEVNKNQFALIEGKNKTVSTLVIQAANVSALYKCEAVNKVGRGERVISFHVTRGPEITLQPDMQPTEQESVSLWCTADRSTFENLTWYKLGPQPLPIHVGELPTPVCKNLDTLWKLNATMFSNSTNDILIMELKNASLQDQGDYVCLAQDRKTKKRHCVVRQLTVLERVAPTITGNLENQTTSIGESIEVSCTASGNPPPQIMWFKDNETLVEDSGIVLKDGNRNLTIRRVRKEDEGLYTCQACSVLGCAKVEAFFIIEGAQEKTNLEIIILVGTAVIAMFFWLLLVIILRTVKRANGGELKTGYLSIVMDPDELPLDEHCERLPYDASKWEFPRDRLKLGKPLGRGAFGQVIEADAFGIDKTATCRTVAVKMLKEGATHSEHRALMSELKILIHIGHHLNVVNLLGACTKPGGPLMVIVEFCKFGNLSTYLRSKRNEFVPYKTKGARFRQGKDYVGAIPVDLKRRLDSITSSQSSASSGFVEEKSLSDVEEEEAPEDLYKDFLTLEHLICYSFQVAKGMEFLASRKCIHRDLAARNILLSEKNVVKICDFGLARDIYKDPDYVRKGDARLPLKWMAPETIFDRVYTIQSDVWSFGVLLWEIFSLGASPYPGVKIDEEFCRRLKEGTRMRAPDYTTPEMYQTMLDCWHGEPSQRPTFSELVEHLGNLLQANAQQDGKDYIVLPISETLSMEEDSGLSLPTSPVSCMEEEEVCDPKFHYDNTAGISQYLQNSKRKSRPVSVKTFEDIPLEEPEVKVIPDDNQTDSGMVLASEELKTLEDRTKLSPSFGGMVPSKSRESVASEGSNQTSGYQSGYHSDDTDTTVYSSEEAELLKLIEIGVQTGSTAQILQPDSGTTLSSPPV
Chain of Fibroblast growth factor receptor 3 (Homo sapiens) (P22607 23-806 limits assumed): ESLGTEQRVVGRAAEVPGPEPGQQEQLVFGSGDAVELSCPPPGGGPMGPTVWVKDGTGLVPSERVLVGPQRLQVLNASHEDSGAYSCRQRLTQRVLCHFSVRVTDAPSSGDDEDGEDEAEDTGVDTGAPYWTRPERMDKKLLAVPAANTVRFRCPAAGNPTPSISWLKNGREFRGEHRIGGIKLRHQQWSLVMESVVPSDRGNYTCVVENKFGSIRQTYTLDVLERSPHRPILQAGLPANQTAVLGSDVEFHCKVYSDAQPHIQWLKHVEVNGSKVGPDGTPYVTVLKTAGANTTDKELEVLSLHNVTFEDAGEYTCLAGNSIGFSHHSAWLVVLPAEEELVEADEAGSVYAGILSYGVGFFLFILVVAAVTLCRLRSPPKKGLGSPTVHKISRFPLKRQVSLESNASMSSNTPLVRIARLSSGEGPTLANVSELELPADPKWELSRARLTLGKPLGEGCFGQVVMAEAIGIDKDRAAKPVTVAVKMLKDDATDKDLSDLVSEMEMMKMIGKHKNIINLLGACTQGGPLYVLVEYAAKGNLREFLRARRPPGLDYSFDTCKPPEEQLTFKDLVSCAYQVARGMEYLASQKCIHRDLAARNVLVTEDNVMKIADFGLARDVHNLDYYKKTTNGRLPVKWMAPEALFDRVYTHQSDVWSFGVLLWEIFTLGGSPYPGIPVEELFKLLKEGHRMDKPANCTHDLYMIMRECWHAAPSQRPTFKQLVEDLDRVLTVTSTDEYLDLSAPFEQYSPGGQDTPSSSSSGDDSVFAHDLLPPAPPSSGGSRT
Chain of Fibroblast growth factor receptor 1 (Homo sapiens) (P11362 22-822 limits assumed): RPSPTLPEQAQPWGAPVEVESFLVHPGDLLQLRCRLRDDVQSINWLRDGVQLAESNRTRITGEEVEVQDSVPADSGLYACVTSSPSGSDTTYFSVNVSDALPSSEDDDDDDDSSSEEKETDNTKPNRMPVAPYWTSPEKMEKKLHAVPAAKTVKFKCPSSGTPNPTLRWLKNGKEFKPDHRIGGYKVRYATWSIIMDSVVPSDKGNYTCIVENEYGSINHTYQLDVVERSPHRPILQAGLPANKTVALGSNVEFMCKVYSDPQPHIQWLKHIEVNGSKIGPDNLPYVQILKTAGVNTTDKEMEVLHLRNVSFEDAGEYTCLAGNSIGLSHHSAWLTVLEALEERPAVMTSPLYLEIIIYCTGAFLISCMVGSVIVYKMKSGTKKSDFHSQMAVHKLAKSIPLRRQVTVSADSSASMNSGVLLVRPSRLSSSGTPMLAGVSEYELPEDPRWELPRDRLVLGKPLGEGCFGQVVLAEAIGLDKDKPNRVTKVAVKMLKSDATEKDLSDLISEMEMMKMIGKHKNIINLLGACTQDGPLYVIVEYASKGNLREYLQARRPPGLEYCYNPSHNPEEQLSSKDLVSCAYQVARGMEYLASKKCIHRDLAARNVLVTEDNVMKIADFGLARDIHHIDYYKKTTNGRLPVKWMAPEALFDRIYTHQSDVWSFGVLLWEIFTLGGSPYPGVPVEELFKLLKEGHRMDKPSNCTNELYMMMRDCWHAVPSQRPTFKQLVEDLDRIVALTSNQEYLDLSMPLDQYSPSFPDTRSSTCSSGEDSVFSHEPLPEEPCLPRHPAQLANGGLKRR

Row | SMILES | IC50 [1] [nM] | IC50 [2] [nM] | IC50 [7] [nM] | IC50 [8] [nM] | further results
1 | C=CC(=O)N1CC[C@H](n2nc(-c3cc(OC)cc(OC)c3)c3c(N)ncnc32)C1 | > 5000 |  |  |  | 
2 | C=CC(=O)N1CC[C@H](n2nc(C(=O)Nc3cc(OC)cc(OC)c3)c3c(N)ncnc32)C1 | > 5000 | 670 |  |  | 
3 | C=CC(=O)N1CC[C@H](n2cc(-c3cnc4ccccc4c3)c3c(N)ncnc32)C1 | 111 | 17 |  |  | 
4 | COc1cc(C#Cc2nn(C3CN(C(=O)/C=C/CN(C)C)C3)c3ncnc(N)c23)cc(OC)c1 |  |  | 8.4 | > 5000 | remaining at 0.5 h [3]: 77%; remaining at 0.5 h [4]: 98%; AUC(0-t) at 6 h [5]: 1.27 µM·h; logD [6]: 2.3
5 | C=CC(=O)N1CC(Cn2nc(C#Cc3cc(OC)cc(OC)c3)c3c(N)ncnc32)C1 |  |  | 32 | > 5000 | 
6 | C=CC(=O)NCCn1nc(C#Cc2cc(OC)cc(OC)c2)c2c(N)ncnc21 |  |  | 362 | > 5000 | 
7 | C=CC(=O)N1CC[C@@H](n2nc(-c3cnc4ccccc4c3)c3c(N)ncnc32)C1 | 5.4 | 2260 |  |  | 
8 | C=CC(=O)N1CC[C@@H](n2nc(C#Cc3cc(OC)cc(OC)c3)c3c(N)ncnc32)C1 |  |  | 113 | > 5000 | IC50 [9]: 1490 nM
9 | C=CC(=O)N1CC(n2nc(C#Cc3cc(OC)cc(OC)c3)c3c(N)ncnc32)C1 |  |  | 7.4 | > 5000 | remaining at 0.5 h [3]: 83%; remaining at 0.5 h [4]: 92%; AUC(0-t) at 6 h [5]: 0.07 µM·h; logD [6]: 3
10 | C=CC(=O)N1CC[C@@H](n2cc(-c3cnc4ccccc4c3)c3c(N)ncnc32)C1 | 0.4 | 313 |  |  | 
11 | C=CC(=O)N1CCC(n2cc(-c3cnc4ccccc4c3)c3c(N)ncnc32)C1 (racemic) | 1.2 | 57 |  |  | 
12 | COc1cc(C#Cc2nn([C@H]3CCN(C(=O)/C=C/CN(C)C)C3)c3ncnc(N)c23)cc(OC)c1 |  |  | 43 | > 5000 | 
13 | C=CC(=O)N1CCC(n2nc(C#Cc3cc(OC)cc(OC)c3)c3c(N)ncnc32)CC1 |  |  | 33 | > 5000 | 
14 | C=CC(=O)N1CC[C@H](n2nc(CCc3cc(OC)cc(OC)c3)c3c(N)ncnc32)C1 | > 5000 | 239 |  |  | 
15 | CCC(=O)N1CC[C@H](n2nc(C#Cc3cc(OC)cc(OC)c3)c3c(N)ncnc32)C1 | > 5000 |  | 1420 | > 5000 | 
16 | C=CC(=O)N1CC[C@H](n2nc(-c3cnc4ccccc4c3)c3c(N)ncnc32)C1 | 741 | 255 |  |  | 
17 | C=CC(=O)N1CC[C@H](n2nc(C#Cc3cc(OC)cc(OC)c3)c3c(N)ncnc32)C1 [FUTIBATINIB] | > 5000 |  | 3.7 | > 5000 | IC50 [9]: 2360 nM; remaining at 0.5 h [3]: 66%; remaining at 0.5 h [4]: 69%; AUC(0-t) at 6 h [5]: 23.9 µM·h; logD [6]: 3.4; inhibition [10]: 99.1%; inhibition [11]: 97.8%; inhibition [12]: 69%; inhibition [13]: 55%

Reference: ChEMBL document CHEMBL5252660 (ACS Med Chem Lett, 2023)
